± gives the expanded uncertainty stated by the source.
Test: refractive index (Na D-line) (dimensionless)
Details: 298.15 K; 101.33 kPa; Liquid; Standard Abbe refractometry

For `CCOC(C)=O` [ethyl acetate], which refractive index is on record?
The refractive index was 1.36978 ± 0.00072.

For `CCCCCO` [pentan-1-ol], which refractive index is on record?
The refractive index was 1.4077 ± 0.00073.

With `O` [water] as the compound, how does the refractive index read?
Its refractive index is 1.3325 ± 0.00072.

Which refractive index does the source give for `CCO` [ethanol] here?
Its refractive index is 1.35941 ± 0.00073.

Source: the NIST ThermoML archive (doi:10.1021/je060054+)
